In patent publication US12440471B2, “Compositions and methods for the treatment of bronchopulmonary dysplasia (BPD) and BPD-associated pulmonary hypertension” (AyuVis Research, Inc., priority 2021, dated 2025):

Columns and labels:
[1] = PK study in mouse pups by IP and IN routes (plasma, lung tissue); type: in vivo
Description: Pharmacokinetic (PK) Profile of AVR-48 (compound 8). The PK studies of AVR-48 were developed and designed in-house, by high performance liquid chromatography (HPLC), in both mouse and rat pups by IV, IP and IN dosing, to check the bioavailability of the drug formulated as solution, suspension or nanoparticle encapsulation in plasma, broncho-alveolar lavage fluid (BALF) and lung tissues.
The first study was done in the plasma of mouse pups by IP and IN routes to determine the dose range for efficacy. […] For IN dosing, a Tmax of 1 h was found even with a dose of 0.22 mg/kg and rapid clearance was observed by 2 h.

[2] = test system: hyperoxia-exposed BPD mouse model; assay: BPD mouse model: immunofluorescence (Ki67, PCNA, vWF) and TUNEL staining of lung; type: in vivo
Description: AVR-48 restored lung morphology and improved alveolar cellular physiology. After assessment of the safety profile of the AVR-48, and confirmation of the ideal dose to be used, the inventors then performed studies to evaluate the therapeutic effect on the lung in the experimental BPD mouse model, as previously described (Bhandari, Choo-Wing et al. 2008, Leary, Das et al. 2019, Das, Acharya et al 2020, Das, Curstedt et al 2020). BPD is characterized by enlarged simplified alveoli with large air sacs, thickened septum, and thin alveolar epithelium (FIG. 2A) accompanied by overall decrease in alveolar cell proliferation, decreased/dysregulated angiogenesis and increased cell death. All these features were restored after injection of 2 doses of AVR-48, IP (10 mg/kg) on days P2 and P4. […] The total inflammatory cells present in the BALF (FIG. 3A) and the total protein content (FIG. 3B)—both increase in BPD, was decreased after treatment with AVR-48. […] To assess cell specificity, the inventors focused on Type I and Type II alveolar epithelial cells (AECs), as they are most relevant to the process of alveolarization, as described in the manuscript. The inventors utilized the receptor for advanced glycation end-products (RAGE) as the preferred marker for Type I AECs and surfactant protein (SP)-C for the Type II AECs. Due to Ki67 and SP-C being raised in the same species, we used proliferating cell nuclear antigen (PCNA) expression—a well-established marker of cell proliferation because cells remain a longer time in the G1/S phase when proliferating—as a preferred marker for proliferating cells. […] There were few cells which were double positive for PCNA as well as RAGE in the RA and RA+AVR-48 groups (FIG. 4C).
Histology, immunohistochemistry and immunofluorescence. Both the RA control and BPD mice were anesthetized (using an overdose of a cocktail of xylazine-ketamine) and lung and heart tissues were harvested after perfusion and fixed overnight in 4% paraformaldehyde. Fixed tissues were then washed in fresh PBS, dehydrated using 70% ethanol, cleared, and embedded in paraffin to be sectioned and stained with hematoxylin and eosin (H&E) for lung morphometry or immunohistochemistry/immunofluorescence as previously described (Leary, Das et al. 2019, Das, Achaiya et al. 2020, Das, Curstedt et al. 2020). Immunofluorescence staining was done for Ki67 (Abcam, 1:10) and Von Wilebrand Factor (vWF-DAKO, 1:100) on lung paraffin sections following the protocol as described earlier (Leary, Das et al. 2019) while TUNEL staining was done following the manufacturer's instructions (Roche).
For quantification of cell proliferation and cell death, the entire lung section was divided into 3 areas, and the total number of Ki67+ve and TUNEL+ve cells nuclei were counted manually which was normalized with the total number of nuclei to give a percentage of positive cells. For vWF quantification, total number of closed vessels were counted per high power field area in one lung section. A minimum of 3 areas were chosen, and 3-7 animals were used for staining and counting.

[3] = PK in preterm lambs after IV dosing; type: in vivo, lamb
Procedure: A total 9 lambs were used for this study. One dose of Curosurf was given intratracheally to the PT lamb just after birth. Randomized doses of compound AVR-48 (8) (0, 0.1, 0.3, 1.0 and 3.0 mg/kg) were administered intravenously every 12 hr after the initial dose that will be given at 6 hr after delivery to n=2-4 lambs via slow intravenous injection. The beginning treatment at 6 hr post-delivery is selected to represent the human case where neonatologists attempt to allow an infant to breath without mechanical ventilation, if possible, and then begin invasive respiratory support as necessary. Whole blood was drawn from PT lambs at the time of delivery (“pre-dose”), immediately after dosing (IAD), at 15, 30, 45, and 60 min, and at 2, 4, 8, 12, 24, 48, 72, and 96 hr after the initial dose. Plasma extractions and bioanalysis of compound AVR-48 (8) were performed using a qualified bioanalysis method already developed by us. The PK parameters were calculated following both non-Compartmental Pharmacokinetic Modeling and population Pharmacokinetic Modeling as described by Roberts et al previously (Roberts, Stockmann et al. 2016). Blood was collected every 15 min for the first 90 min of postnatal life, followed by every 3 hours for 12 hours and then spaced at 1.5 d, 2.5 d, 3.5 d, 6.5 d, and 9.5 d for analysis of cytokines (Visconti, Senthamaraikannan et al. 2018) and VEGF levels (Albertine, Dahl et al. 2010). The blood samples also were analyzed for hematology and liver enzymes. After 6-7 d of mechanical ventilation, the lambs will be weaned from mechanical ventillation and weaned to non-invasive support for 3 d to ascertain longer-term outcome (Dahl, Bowen et al. 2018). Terminally, the PT lambs were euthanized after 10 days and their heart/lungs and brain were removed. Ex vivo BAL of the right cranial lobe (it has its own bronchus, pulmonary artery and vein) was done for similar analyses. Tracheal aspirates were collected according to the protocol for cytokines, BAL protein, ICAM-1 and VEGF. The spleen was collected to analyze immune cell population, using FACS.

whole cord blood (WCB) = assay: Cytokines in whole cord blood (WCB); type: cell-based, human
Description: IL-1β and IFN-Υ were not detected with either AVR-48 alone or in combination with LPS. N=[…], **p<0.05, ***p<0.005, ****p<0.001, One-way ANOVA.

[4] = C57BL/6J, mouse, plasma, 10 mg/kg IP
[5] = sheep, plasma, single IV dose 3.0 mg/kg/dose saline solution, n=3 preterm lambs
[6] = AVR-48 alone or in combination with LPS

CC(=O)N[C@@H]1C(Oc2ccc([N+](=O)[O-])cc2)OC(CO)C(O)C1O (some centres unmarked) [AVR-48]
Tmax ([1]; C57BL/6J, mouse, intraperitoneal, lung tissue, 10 mg/kg): 5 min
Cmax ([1]; C57BL/6J, mouse, intraperitoneal, plasma, single IV or IP injection of 10 mg/kg): 5.78 ± 0.91 µM
Tmax ([1]; C57BL/6J, mouse, plasma, other: intranasal (IN), IN dosing, 0.22 mg/kg): 60 min
Tmax ([1]; C57BL/6J, mouse, plasma, 0.22 mg/kg IP): 5 min
Tmax [1, 4]: 5 min
half-life [1, 4]: 21.6 min
time by which rapid clearance was observed ([1]; IN dosing, 0.22 mg/kg): ≤ 2 h
clearance from circulation ([1]; following IP injection): cleared from circulation rapidly
bioavailability in plasma and lungs, IN vs IP ([1]; solution formulation): similar
cell proliferation (Ki67 immunostaining) ([2]; 10 mg/kg IP P2 and P4, vs BPD): revival in cell proliferation
RAGE+ve cells co-localization with PCNA (Type I AECs) ([2]; BPD or BPD+AVR-48 groups): did not co-localize with PCNA
cells co-localizing SP-C and PCNA (proliferating Type II AECs) ([2]; BPD vs RA, RA+AVR-48, BPD+AVR-48): less in the BPD group as compared to RA, RA+AVR-48 and BPD+AVR-48 groups
blood vessels (vWF immunostaining) ([2]; vs BPD group): showed improvement
cell death (TUNEL staining, cleaved caspase 3 immunoblotting) ([2]; vs BPD group): decrease in cell death
drug accumulation ([3]; repeat IV dosing for 7 days): no drug accumulation
Cmax [3, 5]: 12.2 ± 5.6 µM
half-life [3, 5]: 33.6 min
plasma concentration profile ([3]; single IV dose 3.0 mg/kg/dose): linear decline in drug concentration
IFN-Υ (whole cord blood (WCB); [6]): not detected
IL-1β (whole cord blood (WCB); [6]): not detected
IL-10 increase (whole cord blood (WCB); AVR-48 alone, 10 μM): ~1.5 fold
IL-10 (whole cord blood (WCB); LPS+AVR-48, 10 μM): increased
TNF-α level (whole cord blood (WCB); alone or in combination with LPS): significantly decreased
